Laboratory results published in patent publication US20130189764A1, “SELECTIVE GROWTH MEDIA” (Oxide Limited, priority 2000, published 2013).
Converted amounts (≈) assume the structure as drawn.

Experiments:
[1] = test system: Enterobacter sakazakii 1888; assay: MIC in DMSal medium (Example 17); type: cell-based; conditions: Enterobacter sakazakii 1888, DMSal medium
E. coli 607 = assay: MIC in DMSal medium (Example 17); type: cell-based; conditions: E. coli 607, DMSal medium
[2] = test system: Salmonella typhimurium 722; assay: MIC in DMSal medium (Example 17); type: cell-based; conditions: for MIC: Salmonella typhimurium 722, DMSal medium; for effect on growth of Salmonella typhimurium: DMSal
Method: (§1) Isoleucyl-AEP and sarcosyl-alanyl-AEP were compared to ala-AEP (all in DMSal medium) for the ability to selectively recover two clinically important pathogenic bacteria: Salmonella and Staphylococcus aureus.
(§2) For selective growth of Salmonella inhibition of Citrobacter, Enterobacter sakazakii and E. coli is important. […] Sarcosyl-alanyl-AEP used at a concentration of 1.0 μg/ml is sufficient to inhibit the growth of all three undesired bacteria while having no effect on growth of Salmonella typhimurium. […] Alternatively, a concentration of 2.0 μg/ml of isoleucyl-AEP is required to inhibit the growth of Citrobacter, Enterobacter sakazakii and E. coli and this concentration has no effect on the Salmonella typhimurium strain tested.

Enterococcus faecium 220 = assay: MIC in DMSal medium (Example 17); type: cell-based; conditions: Enterococcus faecium 220, DMSal medium
[3] = test system: Citrobacter, Enterobacter sakazakii and E. coli; assay: inhibition of the three undesired bacteria in DMSal (Example 17); type: cell-based
Method: as §1, §2

Citrobacter freundii 370 = assay: MIC in DMSal medium (Example 17); type: cell-based; conditions: Citrobacter freundii 370, DMSal medium
S. aureus ss aureus 2355 = assay: MIC in DMSal medium (Example 17); type: cell-based; conditions: S. aureus ss aureus 2355, DMSal medium
Description: as §1

[4] = test system: Enterococcus faecalis 581; assay: MIC in DMSal medium (Example 17); type: cell-based; conditions: Enterococcus faecalis 581, DMSal medium
Description: as §1

[5] = test system: Enterococcus faecalis 501; assay: MIC in DMSal medium (Example 17); type: cell-based; conditions: Enterococcus faecalis 501, DMSal medium
[6] = test system: Enterococcus faecalis 640; assay: MIC in DMSal medium (Example 17); type: cell-based; conditions: Enterococcus faecalis 640, DMSal medium
[7] = log octanol/water; footnote a: Leo et al (1971); cited from earlier work
S. aureus (MRSA) 934 = assay: MIC in DMSal medium (Example 17); type: cell-based; conditions: S. aureus (MRSA) 934, DMSal medium
Description: as §1

S. aureus 198 = assay: MIC in DMSal medium (Example 17); type: cell-based; conditions: S. aureus 198, DMSal medium
Description: as §1

[8] = test system: E. faecalis 640 and S. aureus 106; assay: selective recovery of S. aureus on DMSal agar seeded with E. faecalis (Example 18); type: cell-based, Enterococcus faecalis, Staphylococcus aureus; conditions: 20 μg/ml, DMSal agar with horse serum (50 ml/L), approximately 24 hours at 37° C.
Method: The effectiveness of sulfacetamide-β-D-galactoside as a selective agent for recovery of S. aureus in the presence of E. faecalis was tested. Sulfacetamide-β-D-galactoside (20 μg/ml) and horse serum (50 ml/L) was added to DMSal agar to make the test plates; DMSal agar without sulfacetamide-β-D-galactoside served as the control. All plates (with and without sulfacetamide-β-D-galactoside) were seeded with E. faecalis 640 and half of the total number of plates (with and without sulfacetamide-β-D-galactoside) were streaked with S. aureus 106. All plates were incubated for approximately 24 hours at 37° C.
As FIGS. 22a and 22b show, all plates without sulfacetamide-β-D-galactoside supported growth of E. faecalis.

[9] = test system: Salmonella typhimurium OCC 1870; assay: growth on nutrient agar streak plates, pure culture (Example 2); type: cell-based; conditions: S. typhimurium OCC 1870, nutrient agar, 0-10 mM tested
Description: Example 1 was repeated, using Salmonella typhimurium OCC 1870 as the test organism. The results are shown in FIG. 3, which uses the same key as FIG. 2.

[10] = test system: Klebsiella pneumoniae CMCC3077; assay: total viable count in Nutrient Broth (Example 10); type: cell-based; conditions: 5 mM in Nutrient Broth, 37° C.
Method: Growth curve data on the activity of alaphosphin towards Klebsiella spp. was generated. Particular attention was paid to measuring the kinetics of inhibition in broth culture. The media used in this work were Buffered Peptone Water, Nutrient Broth and Tryptone Soya Agar. The media were prepared according to the manufacturer's instructions.
The selective agents, AEP (Cat. No. 06655) and alaphosphin (Cat. No. 05260), were supplied by Fluka. They were dissolved in water at 0.5M concentration, filter-sterilised, and 100 μl added to 10 ml of Nutrient Broth to give a final concentration in the test medium of 5 mM of AEP or alaphosphin respectively.
Klebsiella pneumnoniae CMCC3077 was chosen, as it is a food isolate and work had been carried out previously on this organism using alaphosphin and AEP (see preceding examples). The organism was inoculated into Nutrient Broth and incubated overnight at 37° C. […] The test media were incubated at 37° C., and sampled at hourly intervals. The cultures were serially diluted in Buffered Peptone Water and inoculated onto Tryptone Soya Agar. These plates were incubated overnight at 37° C. and the total viable count made the next day.
Typical results are shown in FIG. 15 which is a graph of total viable count (log10 cfu/ml) against time (hours).

[11] = test system: heat stressed Salmonella typhimurium (OCC 1792); assay: resuscitation of heat-stressed cells, microtitre MPN method (Example 14); type: cell-based; conditions: BPW supplemented with 3 different levels of AEP, relative to BPW alone
Method: Salmonella typhimurium (OCC 1792) was heat stressed at 51.4° C. for 25 minutes according to the protocol of Stephens et al. (1997 J. Appl. Micro. 8, 445-455). Cells were diluted in 7 different resuscitation media: yeast extract broth with a high reactive oxygen species content that is inhibitory to stressed cells, SPRINT enrichment broth supplemented with Oxyrase that is an optimised resuscitation medium, BPW as the control that has typical resuscitation properties, BPW supplemented with NaCl that is inhibitory to stressed cells, and BPW supplemented with 3 different levels of AEP. Resuscitation was quantified using a microtitre MPN method.
Typical results are shown in FIG. 20 which is a bar chart showing the difference in growth (Log cfu/ml) of the stressed cells in various media relative to growth in BPW alone.

[12] = test system: Bacillus subtilis strain OCC 214; assay: growth on nutrient agar streak plates, pure culture (Example 1); type: cell-based; conditions: B. subtilis OCC214, nutrient agar, 0-10 mM tested
Description: In example 1 the sensitivity of Bacillus subtilis strain OCC 214 to alaphosphin or AEP was investigated. […] The organism is known to be LALA-ve, so the observations agree with the known characteristics of the organism.

S. aureus OCC 102 = assay: growth on nutrient agar, mixed culture with K. pneumoniae (Example 6); type: cell-based, Staphylococcus aureus
Description: (§3) Example 1 was repeated, this time using a mixed culture of K. pneumoniae CMCC 3077 and S. aureus OCC 102. The results for growth in the presence of AEP or alaphosphin are shown in FIGS. 7 and 8 respectively: empty columns represent growth of S. aureus, the shaded columns represent growth of K. pneumoniae. […] Accordingly, there is a considerable alaphosphin concentration range over which S. aureus will readily grow whilst K. pneumoniae will be inhibited. Even if K. pneumoniae cells lyse due to the toxic effect of AEP released intracellularly, the AEP is not toxic for S. aureus at the concentrations involved.

[13] = test system: Enterococcus faecalis OCC 640; assay: growth on nutrient agar streak plates, pure culture (Example 3); type: cell-based; conditions: E. faecalis OCC 640, nutrient agar, 0-10 mM tested
Description: Example 1 was repeated using Enterococcus faecalis OCC 640 as the test organism.

B. subtilis OCC 214 = assay: growth on nutrient agar, mixed culture with K. pneumoniae (Example 8); type: cell-based, Bacillus subtilis; conditions: B. subtilis in mixed culture with K. pneumoniae
Description: (§4) Example 6 was repeated, this time using a mixed culture of B. subtilis OCC 214 and K. pneumoniae CMCC 3077, in the presence of AEP or alaphosphin. The empty columns show the growth of B. subtilis, the shaded columns denote growth of K. pneumoniae.

K. pneumoniae CMCC 3077 [14] = assay: growth on nutrient agar, mixed culture with B. subtilis (Example 8); type: cell-based, Klebsiella pneumoniae; conditions: all concentrations tested
Description: as §4

[15] = test system: Klebsiella pneumoniae CMCC 3077; assay: growth on nutrient agar streak plates, pure culture (Example 4); type: cell-based; conditions: K. pneumoniae CMCC 3077, nutrient agar, 0-10 mM tested
Description: Example 1 was repeated using Klebsiella pneumoniae CMCC 3077 as the test organism. The results are shown in FIG. 5, and are qualitatively similar to those obtained in example 2.

[16] = test system: Staphylococcus aureus OCC 102; assay: growth on nutrient agar streak plates, pure culture (Example 5); type: cell-based; conditions: S. aureus OCC 102, nutrient agar, all concentrations tested (up to 10 mM)
Description: Example 1 was repeated using Staphylococcus aureus OCC 102 as the test organism.

K. pneumoniae CMCC 3077 [17] = assay: growth on nutrient agar, mixed culture with S. aureus (Example 6); type: cell-based, Klebsiella pneumoniae
Description: as §3

E. coli OCC 2129 = assay: Bioscreen growth, comparison with conventional selective agents (Example 12); type: cell-based, Escherichia coli; conditions: at 12 hours
Method: (§5) The following is an example to illustrate the beneficial lower toxic properties of the new selective agents towards the target microorganism, in this case Salmonella. Two selective agents, cefsulodin and novobiocin, as used conventionally in Salmonella isolation from foods (Humphrey and Whitehead, 1992 British Poultry Science 33, 761-768) were compared with alaphosphin. All were dissolved in deionised water, filter sterilised, and an amount of the solution added to either autoclaved Lab-Lemco broth+phosphate buffer (20 g/l; pH 6.0; ala-AEP) or Buffered Peptone Water (pH 6.8; cefsulodin and novobiocin) to give final concentrations of 66, 16.5 and 11 μg/ml respectively. [The different pH values reflect the different pH optima of the selective agents (ala-AEP was also subsequently used in BPW at pH 6.8 and similar results obtained)]. Volumes (300 μl) were then pipetted into the wells of Bioscreen microtitre plates and 30 μl quantities of 1 in 10,000 dilutions of overnight cultures of E. coli OCC 2129 and Salmonella typhimurium OCC 722, added. Plates were then covered, incubated at 37° C., and the opacity of the organism suspensions measured using a Bioscreen instrument.
(§6) Typical results are shown in FIGS. 17-19, which are graphs of optical density against time for S. typhimurium (circles) and E. coli (squares) in the presence (empty symbols) or absence (filled symbols) of 15 μg/ml cefsulodin (FIG. 17), 10 μg/ml novobiocin (FIG. 18) or 60 μg/ml alaphosphin (FIG. 19).

[18] = test system: Salmonella typhimurium OCC 722; assay: as above; type: cell-based; conditions: Buffered Peptone Water pH 6.8
Method: as §5, §6

CCC(C)C(N)C(=O)NC(C)P(=O)(O)O (stereo not drawn) [isoleucyl-AEP, Isoleucyl-AEP]
MIC [1]: 2.0 µg/mL (≈ 8.4 µM)
MIC (E. coli 607): 2.0 µg/mL (≈ 8.4 µM)
MIC [2]: 10 µg/mL (≈ 42 µM)
effect on growth of Salmonella typhimurium ([2]; isoleucyl-AEP at 2.0 μg/ml): no effect
MIC (Enterococcus faecium 220): 5 µg/mL (≈ 21 µM)
concentration sufficient / required to inhibit the growth of all three undesired bacteria [3]: 2.0 µg/mL
MIC (Citrobacter freundii 370): 2.0 µg/mL (≈ 8.4 µM)
MIC (S. aureus ss aureus 2355): >200 µg/mL
MIC [4]: 5 µg/mL (≈ 21 µM)
MIC [5]: 5 µg/mL (≈ 21 µM)
MIC [6]: 5 µg/mL (≈ 21 µM)

O=[N+]([O-])c1ccccc1O [2-nitrophenol]
Log Partition Coefficient [7]: 2.00^a

CNCC(=O)NC(C)C(=O)NC(C)P(=O)(O)O (stereo not drawn)
MIC [1]: 0.01 µg/mL (≈ 0.0374 µM)
MIC (E. coli 607): 0.05 µg/mL (≈ 0.187 µM)
MIC [2]: 2.0 µg/mL (≈ 7.48 µM)
effect on growth of Salmonella typhimurium ([2]; sarcosyl-alanyl-AEP at 1.0 μg/ml): no effect
MIC (Enterococcus faecium 220): >256 µg/mL
concentration sufficient / required to inhibit the growth of all three undesired bacteria [3]: 1.0 µg/mL
MIC (Citrobacter freundii 370): 1.0 µg/mL (≈ 3.74 µM)
MIC (S. aureus ss aureus 2355): >100 µg/mL
MIC (S. aureus (MRSA) 934): >100 µg/mL
MIC (S. aureus 198): >100 µg/mL
MIC [4]: 8 µg/mL (≈ 29.9 µM)
MIC [5]: 8 µg/mL (≈ 29.9 µM)
MIC [6]: 16 µg/mL (≈ 59.9 µM)

CC(=O)NS(=O)(=O)c1ccc(N[C@@H]2O[C@H](CO)[C@H](O)[C@H](O)[C@H]2O)cc1 [sulfacetamide-β-D-galactoside]
colonies observed on plates seeded with E. faecalis and streaked with S. aureus [8]: only colonies of S. aureus were observed

Nc1ccccc1 [Aniline]
Log Partition Coefficient [7]: 0.94^a

CC(N)P(=O)(O)O [AEP, L-1-aminoethylphosphonic acid, reference compound]
concentration at which growth is completely inhibited [9]: > 10 mM
effect on growth compared with Nutrient Broth control [10]: little effect
effect on resuscitation of heat-stressed Salmonella [11]: did not significantly affect
concentration at which growth is inhibited [12]: ≥ 5 mM
inhibition of growth (in words) (S. aureus OCC 102): neither organism was inhibited
concentration at which growth is completely inhibited [13]: ≥ 5 mM
concentration above which some sensitivity is exhibited (B. subtilis OCC 214): above 5 mM
sensitivity of growth (in words) (K. pneumoniae CMCC 3077 [14]): insensitive
concentration at which growth is completely inhibited [15]: > 10 mM
sensitivity of growth (in words) [16]: completely insensitive
inhibition of growth (in words) (K. pneumoniae CMCC 3077 [17]): neither organism was inhibited

CO[C@@H]1[C@@H](OC(N)=O)[C@@H](O)[C@H](Oc2ccc3c(O)c(NC(=O)c4ccc(O)c(CC=C(C)C)c4)c(=O)oc3c2C)OC1(C)C [novobiocin]
growth of E. coli relative to S. typhimurium (E. coli OCC 2129; 10 μg/ml novobiocin): substantially outgrows
effect on growth of S. typhimurium ([18]; 10 μg/ml novobiocin): significantly inhibit

NC(=O)c1cc[n+](CC2=C(C(=O)O)N3C(=O)[C@@H](NC(=O)[C@@H](c4ccccc4)S(=O)(=O)[O-])[C@H]3SC2)cc1 [cefsulodin]
growth of E. coli relative to S. typhimurium (E. coli OCC 2129; 15 μg/ml cefsulodin): substantially outgrows
effect on growth of S. typhimurium ([18]; 15 μg/ml cefsulodin): significantly inhibit
